The source of these data is ChEMBL document CHEMBL4321836, “Discovery of BAY-298 and BAY-899: Tetrahydro-1,6-naphthyridine-Based, Potent, and Selective Antagonists of the Luteinizing Hormone Receptor Which Reduce Sex Hormone Levels in Vivo” (J Med Chem, 2019).

The structures appear in SMILES notation.

Data set [1] deals with Cannabinoid receptor 1 (Homo sapiens) (UniProt P21554). The data set can be described thus: Antagonist activity at human CB1 receptor expressed in CHO-K1 cells at 10 uM after 20 mins HTRF assay relative to control. Also noted: scale not given: the % may be the effect or the level left. It is filed as cell-based. On the technique in general: Time-resolved FRET reads energy transfer from a long-lived donor to a nearby acceptor.
Cannabinoid receptor 1 (Homo sapiens), sequence (P21554 whole entry): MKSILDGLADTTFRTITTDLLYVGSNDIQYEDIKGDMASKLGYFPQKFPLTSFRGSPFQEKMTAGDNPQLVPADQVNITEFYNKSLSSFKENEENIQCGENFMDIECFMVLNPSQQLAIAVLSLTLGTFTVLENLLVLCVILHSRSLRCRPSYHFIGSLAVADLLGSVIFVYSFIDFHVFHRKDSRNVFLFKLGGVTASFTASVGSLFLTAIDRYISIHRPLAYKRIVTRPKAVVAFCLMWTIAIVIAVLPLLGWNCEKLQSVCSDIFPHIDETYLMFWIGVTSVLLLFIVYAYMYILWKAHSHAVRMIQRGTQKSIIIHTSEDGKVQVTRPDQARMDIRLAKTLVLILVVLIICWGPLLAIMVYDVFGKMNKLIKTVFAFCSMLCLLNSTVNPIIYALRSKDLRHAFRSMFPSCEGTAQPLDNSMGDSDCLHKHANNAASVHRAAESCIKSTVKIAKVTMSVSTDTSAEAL

In data set [2] the target is Voltage-gated inwardly rectifying potassium channel KCNH2 (Homo sapiens, UniProt Q12809). The data set can be described thus: Inhibition of human ERG expressed in HEK293 cells at holding potential -80 mV by whole-cell voltage-clamp method. Type of data set: cell-based.
Voltage-gated inwardly rectifying potassium channel KCNH2, sequence (Q12809 whole entry): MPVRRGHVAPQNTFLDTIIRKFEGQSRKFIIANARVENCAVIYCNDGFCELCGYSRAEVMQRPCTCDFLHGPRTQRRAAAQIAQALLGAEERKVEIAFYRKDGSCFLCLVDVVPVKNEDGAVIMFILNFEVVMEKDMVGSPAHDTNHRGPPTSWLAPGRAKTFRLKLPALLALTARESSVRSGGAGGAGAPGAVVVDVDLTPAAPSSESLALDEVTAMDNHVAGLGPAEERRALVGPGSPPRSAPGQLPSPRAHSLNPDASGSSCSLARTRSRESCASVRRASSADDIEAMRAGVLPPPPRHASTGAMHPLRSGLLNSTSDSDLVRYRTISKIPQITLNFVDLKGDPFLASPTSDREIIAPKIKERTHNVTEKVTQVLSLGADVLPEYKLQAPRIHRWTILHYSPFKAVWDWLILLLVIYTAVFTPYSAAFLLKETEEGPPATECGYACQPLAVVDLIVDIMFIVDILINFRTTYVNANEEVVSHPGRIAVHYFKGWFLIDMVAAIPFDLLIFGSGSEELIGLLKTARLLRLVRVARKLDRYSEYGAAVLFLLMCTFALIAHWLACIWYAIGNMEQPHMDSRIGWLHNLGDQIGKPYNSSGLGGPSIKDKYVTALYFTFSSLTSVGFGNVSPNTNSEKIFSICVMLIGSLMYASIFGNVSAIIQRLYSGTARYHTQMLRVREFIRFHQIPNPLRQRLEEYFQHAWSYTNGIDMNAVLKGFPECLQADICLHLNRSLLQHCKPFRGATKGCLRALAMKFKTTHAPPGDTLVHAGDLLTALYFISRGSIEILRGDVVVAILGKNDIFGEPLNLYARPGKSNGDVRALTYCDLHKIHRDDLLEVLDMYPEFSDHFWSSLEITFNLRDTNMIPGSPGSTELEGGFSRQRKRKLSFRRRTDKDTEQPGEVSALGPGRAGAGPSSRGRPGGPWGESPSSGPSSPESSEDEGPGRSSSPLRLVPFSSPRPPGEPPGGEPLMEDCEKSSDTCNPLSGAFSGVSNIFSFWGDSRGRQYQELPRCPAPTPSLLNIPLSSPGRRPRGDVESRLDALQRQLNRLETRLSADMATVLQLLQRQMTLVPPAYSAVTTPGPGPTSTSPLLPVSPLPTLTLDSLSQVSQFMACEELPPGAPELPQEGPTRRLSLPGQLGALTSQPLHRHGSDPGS
Data set [3] has as its target T1, Adenosine receptor A2b (Homo sapiens) (UniProt P29275).
T1 sequence (whole entry): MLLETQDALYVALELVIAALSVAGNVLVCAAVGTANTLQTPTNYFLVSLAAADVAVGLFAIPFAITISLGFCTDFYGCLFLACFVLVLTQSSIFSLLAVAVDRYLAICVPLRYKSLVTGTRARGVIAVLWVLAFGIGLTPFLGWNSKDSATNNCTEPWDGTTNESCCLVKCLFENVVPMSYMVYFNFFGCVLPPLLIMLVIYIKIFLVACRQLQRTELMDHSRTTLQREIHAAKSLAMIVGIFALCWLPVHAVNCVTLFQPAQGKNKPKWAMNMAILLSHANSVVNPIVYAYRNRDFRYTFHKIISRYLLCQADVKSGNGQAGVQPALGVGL
Briefly: Antagonist activity at human A2B receptor expressed in HEK293 cells at 10 uM after 10 mins by HTRF assay relative to control. Type of data set: cell-based. Set-up: scale not given: the % may be the effect or the level left.

Data set [4] in a line: Chemical stability of the compound at pH 1 to 10 measured after 1 to 24 hrs by HPLC-UV method. It is filed as physicochemical. As to conditions: buffer.
The target in data set [5] is Motilin receptor (Homo sapiens) (UniProt O43193). The data set can be described thus: Antagonist activity at human Motilin receptor expressed in CHO-K1 cells at 10 uM by fluorimetric method relative to control. It is filed as cell-based. Set-up: scale not given: the % may be the effect or the level left.
Motilin receptor (Homo sapiens), sequence (O43193 whole entry): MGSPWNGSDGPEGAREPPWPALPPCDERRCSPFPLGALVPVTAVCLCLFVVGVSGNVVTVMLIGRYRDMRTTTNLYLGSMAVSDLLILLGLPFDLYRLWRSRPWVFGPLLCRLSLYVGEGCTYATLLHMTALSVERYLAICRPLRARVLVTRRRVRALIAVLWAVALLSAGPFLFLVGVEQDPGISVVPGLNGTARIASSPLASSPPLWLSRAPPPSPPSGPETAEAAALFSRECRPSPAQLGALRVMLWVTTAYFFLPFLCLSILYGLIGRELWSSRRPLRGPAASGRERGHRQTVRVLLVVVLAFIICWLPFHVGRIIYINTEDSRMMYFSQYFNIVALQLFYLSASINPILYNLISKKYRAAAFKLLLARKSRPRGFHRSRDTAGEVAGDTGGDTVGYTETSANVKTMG
The target in data set [6] is Cytochrome P450 3A4 (Homo sapiens, UniProt P08684). The data set can be described thus: Inhibition of CYP3A4 in human liver microsomes using midazolam as substrate by LC-MS/MS analysis. Type of data set: ADME. For orientation: Liver microsomes are a subcellular fraction often used to study metabolism.
Cytochrome P450 3A4, sequence (P08684 whole entry): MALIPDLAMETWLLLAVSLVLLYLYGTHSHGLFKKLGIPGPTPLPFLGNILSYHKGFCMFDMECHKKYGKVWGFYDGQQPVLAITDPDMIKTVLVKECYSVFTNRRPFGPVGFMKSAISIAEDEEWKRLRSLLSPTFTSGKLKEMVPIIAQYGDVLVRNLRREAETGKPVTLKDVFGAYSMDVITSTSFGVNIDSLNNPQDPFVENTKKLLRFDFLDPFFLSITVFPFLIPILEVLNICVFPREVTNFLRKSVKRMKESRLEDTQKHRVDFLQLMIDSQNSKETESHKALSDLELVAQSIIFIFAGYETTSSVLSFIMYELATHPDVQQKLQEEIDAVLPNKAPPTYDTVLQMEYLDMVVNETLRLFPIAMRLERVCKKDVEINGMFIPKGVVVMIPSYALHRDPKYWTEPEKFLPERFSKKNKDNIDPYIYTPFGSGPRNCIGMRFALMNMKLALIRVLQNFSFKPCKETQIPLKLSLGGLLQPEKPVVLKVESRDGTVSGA
The target in data set [7] is T2, Alpha-1A adrenergic receptor (Homo sapiens) (UniProt P35348).
T2 sequence (whole entry): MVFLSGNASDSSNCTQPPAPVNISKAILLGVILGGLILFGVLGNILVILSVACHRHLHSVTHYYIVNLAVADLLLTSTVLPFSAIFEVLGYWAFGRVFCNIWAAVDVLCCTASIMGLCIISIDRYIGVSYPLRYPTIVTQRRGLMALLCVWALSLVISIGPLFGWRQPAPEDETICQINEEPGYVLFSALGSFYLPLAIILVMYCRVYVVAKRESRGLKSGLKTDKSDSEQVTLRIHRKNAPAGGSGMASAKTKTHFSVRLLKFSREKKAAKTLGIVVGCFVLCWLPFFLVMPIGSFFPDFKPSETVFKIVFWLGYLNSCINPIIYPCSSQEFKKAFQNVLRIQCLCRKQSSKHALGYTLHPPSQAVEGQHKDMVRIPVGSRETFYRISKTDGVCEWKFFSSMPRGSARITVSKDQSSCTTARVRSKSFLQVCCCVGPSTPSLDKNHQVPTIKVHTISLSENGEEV
Briefly: Antagonist activity at human alpha1A adrenergic receptor expressed in CHO-K1 cells at 10 uM by fluorimetric method relative to control. Type of data set: cell-based. Set-up: scale not given: the % may be the effect or the level left.

Data set [8] in a line: Volume of distribution at steady state in Wistar rat at 0.5 mg/kg, iv after 2 to 72 hrs by LC-MS/MS analysis. Type of data set: ADME, organism-based. As to conditions: in vivo, read-out: Vdss.
Data set [9] deals with T3, Alpha-2A adrenergic receptor (Homo sapiens) (UniProt P08913).
T3 sequence (whole entry): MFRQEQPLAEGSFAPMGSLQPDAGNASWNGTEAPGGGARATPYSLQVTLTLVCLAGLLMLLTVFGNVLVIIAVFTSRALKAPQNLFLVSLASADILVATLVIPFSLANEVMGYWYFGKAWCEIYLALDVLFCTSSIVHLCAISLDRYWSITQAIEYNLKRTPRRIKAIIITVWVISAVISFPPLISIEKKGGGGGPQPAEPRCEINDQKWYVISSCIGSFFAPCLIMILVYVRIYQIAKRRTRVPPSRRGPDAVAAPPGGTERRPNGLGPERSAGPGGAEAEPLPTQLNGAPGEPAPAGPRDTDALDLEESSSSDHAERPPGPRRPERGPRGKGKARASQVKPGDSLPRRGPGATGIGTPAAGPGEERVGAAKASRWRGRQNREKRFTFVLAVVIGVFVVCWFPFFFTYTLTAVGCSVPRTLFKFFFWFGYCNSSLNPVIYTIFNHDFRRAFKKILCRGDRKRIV
Briefly: Agonist activity at human alpha2A adrenergic receptor expressed in Chem-1 cells at 10 uM by fluorimetric method relative to control. Type of data set: cell-based.

Data set [10] deals with T4, Muscarinic acetylcholine receptor M1 (Homo sapiens) (UniProt P11229).
T4 sequence (whole entry): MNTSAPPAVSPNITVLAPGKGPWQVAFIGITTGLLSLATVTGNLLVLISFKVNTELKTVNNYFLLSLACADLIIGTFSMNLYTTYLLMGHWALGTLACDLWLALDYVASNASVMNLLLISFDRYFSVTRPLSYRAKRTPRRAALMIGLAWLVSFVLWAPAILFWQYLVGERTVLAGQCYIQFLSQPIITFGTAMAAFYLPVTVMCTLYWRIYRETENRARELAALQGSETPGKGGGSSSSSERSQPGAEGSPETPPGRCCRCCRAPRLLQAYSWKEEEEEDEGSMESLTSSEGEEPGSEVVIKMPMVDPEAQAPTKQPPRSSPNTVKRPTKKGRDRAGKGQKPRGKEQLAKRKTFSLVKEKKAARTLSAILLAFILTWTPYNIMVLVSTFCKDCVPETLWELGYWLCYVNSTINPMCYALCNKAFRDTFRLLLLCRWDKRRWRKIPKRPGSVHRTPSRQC
Briefly: Antagonist activity at human muscarinic M1 receptor expressed in CHO-K1 cells at 10 uM by fluorimetric method relative to control. Also noted: scale not given: the % may be the effect or the level left. Type of data set: cell-based.

Data set [11] addresses T5, Prostaglandin E2 receptor EP3 subtype (Homo sapiens) (UniProt P43115).
T5 sequence (whole entry): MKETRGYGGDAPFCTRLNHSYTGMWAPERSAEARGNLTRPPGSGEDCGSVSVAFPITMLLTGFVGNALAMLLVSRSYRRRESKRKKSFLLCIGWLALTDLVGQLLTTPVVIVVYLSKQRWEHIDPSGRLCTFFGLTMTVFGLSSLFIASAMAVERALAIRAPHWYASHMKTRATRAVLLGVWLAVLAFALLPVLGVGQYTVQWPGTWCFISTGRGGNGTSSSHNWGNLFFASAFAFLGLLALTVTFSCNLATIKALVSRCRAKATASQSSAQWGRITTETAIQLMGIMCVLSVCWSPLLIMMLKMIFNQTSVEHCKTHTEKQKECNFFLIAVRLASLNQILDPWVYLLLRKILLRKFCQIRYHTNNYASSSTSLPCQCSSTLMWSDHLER
Briefly: Antagonist activity at human EP3 receptor expressed in […] cells at 10 uM by spectrophotometric method relative to control. Type of data set: cell-based. Set-up: scale not given: the % may be the effect or the level left.

A short description of data set [12]: Toxicity in female rat assessed as effect on animal activity. As to conditions: in vivo.

In general, IC50 refers to the midpoint of a concentration-inhibition curve.

On to `O=C(Nc1ccc(Oc2ccc(F)cc2)cc1)N1CCc2ncccc2[C@@H]1c1ccc(Cl)cc1`, for which the Activity in data set [1], in data set [3], in data set [5], in [7], in data set [9] and in data set [10] was < 70% throughout. The values for the Activity in [11] and in data set [12] were < 70% and “Non-Toxic”, respectively. Besides, the half-maximal inhibitory concentration (IC50) is 3 µM in data set [2] and > 20 µM in data set [6]. Further, the Stability result in data set [4] is on record as “Stable”. Further, the Vd in data set [8] was determined as 1.8 L/kg.
As to `O=C(Nc1cnc(Oc2ccc(F)cc2)nc1)N1CCc2ncccc2[C@@H]1c1ccc(F)cc1` [BAY-899], the Activity in data set [1], in data set [3], in data set [5], in data set [7], in data set [9] and in data set [10] was < 70% throughout. For the same compound, the Activity was < 70% in data set [11] and “Non-Toxic” in [12]. Also, the IC50 was 10.6 µM in [2] and > 20 µM in data set [6]. Besides, the Stability entry in [4] is on record as “Stable”. Also, the Vd in data set [8] came to 16 L/kg.
